Activity calls are given as the source filed them.
How the values were obtained:
[1] = biological target: T1, Acyl-homoserine lactone acylase PvdQ (Pseudomonas aeruginosa (strain LESB58), UniProt Q9I194); test: P. aeruginosa PvdQ acylase inhibitors, dose response, biochemical, fluorescence, plate reader and imaging, cherry-picks (AID 493231)
T1 sequence (Q9I194 whole entry): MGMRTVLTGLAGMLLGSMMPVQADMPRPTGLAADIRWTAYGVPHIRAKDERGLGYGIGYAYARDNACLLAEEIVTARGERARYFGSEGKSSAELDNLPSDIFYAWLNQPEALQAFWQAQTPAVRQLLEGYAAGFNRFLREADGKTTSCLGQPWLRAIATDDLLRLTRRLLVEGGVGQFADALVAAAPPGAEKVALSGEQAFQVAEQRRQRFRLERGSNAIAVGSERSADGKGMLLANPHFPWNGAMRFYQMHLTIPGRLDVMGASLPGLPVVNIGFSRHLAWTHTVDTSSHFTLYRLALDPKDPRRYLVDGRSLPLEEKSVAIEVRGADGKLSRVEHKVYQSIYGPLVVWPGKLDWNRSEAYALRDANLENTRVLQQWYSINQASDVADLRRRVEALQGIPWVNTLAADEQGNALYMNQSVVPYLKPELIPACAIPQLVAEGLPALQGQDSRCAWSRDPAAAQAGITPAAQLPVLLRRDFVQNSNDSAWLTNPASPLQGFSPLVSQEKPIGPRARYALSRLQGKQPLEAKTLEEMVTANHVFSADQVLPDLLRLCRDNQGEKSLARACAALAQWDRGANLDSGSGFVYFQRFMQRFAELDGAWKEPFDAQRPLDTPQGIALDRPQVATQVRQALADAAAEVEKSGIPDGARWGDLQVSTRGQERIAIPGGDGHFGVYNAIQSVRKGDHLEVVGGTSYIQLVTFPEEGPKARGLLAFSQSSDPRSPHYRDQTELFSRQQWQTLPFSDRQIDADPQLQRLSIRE

Cytochrome P450 3A4 = Cytochrome P450 3A4 (Homo sapiens, UniProt P08684);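 further: CYP3A4 tested as one member of a cytochrome P450 panel screen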
cells = format: functional
[2] = THP-1 cell cytotoxicity, dose response, cytotoxicity control for non-replicating M. tuberculosis project (AID 489025); format: functional
[3] = biological target: DNA dC->dU-editing enzyme APOBEC-3A (Homo sapiens, UniProt P31941); test: Dose Response confirmation of small molecule APOBEC3A DNA Deaminase Inhibitors via a fluorescence-based single-stranded DNA deaminase assay. [Related pubchem assays (depositor defined):AID493011, AID493024]; format: functional
[4] = biological target: DNA dC->dU-editing enzyme APOBEC-3G (Homo sapiens, UniProt Q9HC16); format: functional;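 further: Dose-response counterscreen measuring inhibition of APOBEC3G DNA deaminase activity, run while confirming APOBEC3A inhibitors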
Cytochrome P450 2D6 = Cytochrome P450 2D6 (Homo sapiens, UniProt P10635);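 further: CYP2D6 member of a cytochrome P450 panel assay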
Cytochrome P450 2C19 = Cytochrome P450 2C19 (Homo sapiens, UniProt P33261); test: Cytochrome panel assay with activity outcomes. Panel member name: p450-cyp2c19 Compounds with AC50 equal or less than 10 uM are considered active; format: functional; details: read-out: AC50
Mu-type opioid receptor = Mu-type opioid receptor (Homo sapiens, UniProt P35372); test: (§1) Counterscreen for agonists of heterodimerization of the mu 1 (OPRM1) and delta 1 (OPRD1) opioid receptors: Luminescence-based cell-based high throughput dose response assay to identify agonists of OPRM1 homodimerization.; format: functional
[5] = biological target: 5-hydroxytryptamine receptor 5A (Homo sapiens, UniProt P47898); test: Counterscreen for agonists of OPRM1-OPRD1 heterodimerization: luminescence-based cell-based high throughput dose response assay to identify agonists of 5-hydroxytryptamine (serotonin) 5A receptor (HTR5A). [Related pubchem assays (depositor defined):AID504326, AID504355, AID504692, AID504904, AID504905]; format: functional
[6] = biological target: T2, Short transient receptor potential channel 4 (Mus musculus, UniProt Q9QUQ5); test: mouse TRPC4 channel activators, dose response, cell-based, HEK293 TRPC4/mu-opioid, Fluo-4 calcium (AID 434937); format: functional
T2 sequence (Q9QUQ5 whole entry): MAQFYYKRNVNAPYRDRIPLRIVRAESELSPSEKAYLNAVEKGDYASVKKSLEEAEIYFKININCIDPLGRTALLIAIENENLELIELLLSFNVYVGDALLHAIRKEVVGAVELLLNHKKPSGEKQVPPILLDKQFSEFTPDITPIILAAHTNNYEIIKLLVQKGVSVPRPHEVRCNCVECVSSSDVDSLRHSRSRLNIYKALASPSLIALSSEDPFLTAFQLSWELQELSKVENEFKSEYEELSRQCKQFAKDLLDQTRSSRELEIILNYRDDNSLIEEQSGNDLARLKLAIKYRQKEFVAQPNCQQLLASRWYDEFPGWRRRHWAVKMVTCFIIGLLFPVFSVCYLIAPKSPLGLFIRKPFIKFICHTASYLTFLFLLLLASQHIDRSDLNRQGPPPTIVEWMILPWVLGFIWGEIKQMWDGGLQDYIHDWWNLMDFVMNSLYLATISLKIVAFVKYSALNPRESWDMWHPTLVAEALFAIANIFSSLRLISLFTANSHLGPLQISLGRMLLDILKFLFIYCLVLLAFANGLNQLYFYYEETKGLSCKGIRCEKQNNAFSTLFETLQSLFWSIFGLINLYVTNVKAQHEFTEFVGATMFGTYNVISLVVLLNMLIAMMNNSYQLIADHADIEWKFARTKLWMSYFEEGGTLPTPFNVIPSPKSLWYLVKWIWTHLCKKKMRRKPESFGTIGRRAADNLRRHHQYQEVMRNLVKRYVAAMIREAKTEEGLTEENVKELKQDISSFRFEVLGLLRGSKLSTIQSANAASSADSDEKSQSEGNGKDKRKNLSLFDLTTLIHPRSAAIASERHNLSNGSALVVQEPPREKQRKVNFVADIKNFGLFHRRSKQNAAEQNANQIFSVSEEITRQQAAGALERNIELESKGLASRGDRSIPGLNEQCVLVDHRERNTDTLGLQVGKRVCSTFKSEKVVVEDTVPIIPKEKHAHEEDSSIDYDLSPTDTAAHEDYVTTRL

[7] = biological target: Delta-type opioid receptor (Homo sapiens, UniProt P41143); test: as §1, with “of OPRD1” for “of OPRM1”, “homodimerization. [Related pubchem assays (depositor defined):AID504326, AID504355, AID504692, AID504904, AID504905]” for “homodimerization.”; format: functional
H4 = test: Luminescence Cell-Based Dose Response HTS to Identify Activators of 5'UTR Stem-Loop Driven Prion Protein mRNA Translation in H4 Neuroglioblastoma Cells. [Related pubchem assays: 1829 (Project Summary), 1814 (Primary HTS)]; format: functional; details: Homo sapiens
Cytochrome P450 2C9 = Cytochrome P450 2C9 (Homo sapiens, UniProt P11712)
[8] = Luminescence Cell-Based Dose Retest to Confirm Inhibitors of Cancer Stem Cells. [Related pubchem assays (depositor defined):AID2717, AID2721]; format: functional; details: Homo sapiens
[9] = Luminescence Cell-Based Dose Confirmation HTS to Identify Activators of 5'UTR Stem-Loop Driven Alpha-Synuclein mRNA Translation in H4 Neuroglioblastoma Cells. [Related pubchem assays: 1829 (Project Summary), 1814 (Primary HTS)]; format: functional
Cytochrome P450 1A2 = biological target: T3, Cytochrome P450 1A2 (Homo sapiens, UniProt P05177);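 further: PubChem cytochrome P450 panel assay, CYP1A2 panel member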
T3 sequence (P05177 whole entry): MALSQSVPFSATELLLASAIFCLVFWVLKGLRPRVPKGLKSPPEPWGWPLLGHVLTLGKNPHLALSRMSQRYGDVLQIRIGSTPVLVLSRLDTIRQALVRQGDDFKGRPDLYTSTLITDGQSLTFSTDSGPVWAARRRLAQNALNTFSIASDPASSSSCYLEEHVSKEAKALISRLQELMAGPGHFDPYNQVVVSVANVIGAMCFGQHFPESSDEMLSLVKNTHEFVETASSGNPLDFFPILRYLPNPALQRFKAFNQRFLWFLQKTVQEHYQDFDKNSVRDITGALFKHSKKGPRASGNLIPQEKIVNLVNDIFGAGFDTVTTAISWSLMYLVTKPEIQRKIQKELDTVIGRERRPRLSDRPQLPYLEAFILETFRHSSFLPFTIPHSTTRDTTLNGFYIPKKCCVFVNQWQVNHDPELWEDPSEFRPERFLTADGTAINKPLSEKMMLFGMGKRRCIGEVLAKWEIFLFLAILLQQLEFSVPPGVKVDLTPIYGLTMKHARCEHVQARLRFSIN

[10] = Luminescence Cell-Based Dose Response HTS to Identify Activators of Luciferase Translation or Activity in H4 […] Cells. [Related pubchem assays: 1829 (Project Summary), 1814 (Primary HTS)]; format: functional
[11] = biological target: Heat shock protein HSP 90-alpha (Homo sapiens, UniProt P07900); format: functional, organism-based

Sequence of Cytochrome P450 3A4 (P08684 whole entry): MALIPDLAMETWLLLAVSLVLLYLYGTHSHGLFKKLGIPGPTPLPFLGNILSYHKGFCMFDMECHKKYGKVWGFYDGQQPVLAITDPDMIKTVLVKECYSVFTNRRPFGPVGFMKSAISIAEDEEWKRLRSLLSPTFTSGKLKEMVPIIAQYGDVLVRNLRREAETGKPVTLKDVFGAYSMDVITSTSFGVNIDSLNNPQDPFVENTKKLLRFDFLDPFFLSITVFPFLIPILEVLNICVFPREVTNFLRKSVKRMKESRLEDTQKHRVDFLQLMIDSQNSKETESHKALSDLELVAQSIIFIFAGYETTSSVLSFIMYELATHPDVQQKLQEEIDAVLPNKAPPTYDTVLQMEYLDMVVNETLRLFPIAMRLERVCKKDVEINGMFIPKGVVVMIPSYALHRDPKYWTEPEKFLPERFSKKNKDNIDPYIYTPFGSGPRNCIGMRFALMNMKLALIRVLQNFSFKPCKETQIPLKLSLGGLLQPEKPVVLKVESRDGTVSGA
Sequence of DNA dC->dU-editing enzyme APOBEC-3G (Q9HC16 whole entry): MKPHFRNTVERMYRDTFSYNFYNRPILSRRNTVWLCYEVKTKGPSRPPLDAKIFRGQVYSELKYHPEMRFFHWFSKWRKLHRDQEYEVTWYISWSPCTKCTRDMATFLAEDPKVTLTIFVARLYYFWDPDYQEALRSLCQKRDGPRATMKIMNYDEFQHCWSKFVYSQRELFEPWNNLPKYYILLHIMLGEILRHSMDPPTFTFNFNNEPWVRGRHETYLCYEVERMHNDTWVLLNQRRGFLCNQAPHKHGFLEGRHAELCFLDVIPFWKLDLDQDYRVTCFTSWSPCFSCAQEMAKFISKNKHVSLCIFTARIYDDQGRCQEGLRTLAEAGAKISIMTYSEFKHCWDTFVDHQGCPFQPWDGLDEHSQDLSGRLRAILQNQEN
Sequence of DNA dC->dU-editing enzyme APOBEC-3A (P31941 whole entry): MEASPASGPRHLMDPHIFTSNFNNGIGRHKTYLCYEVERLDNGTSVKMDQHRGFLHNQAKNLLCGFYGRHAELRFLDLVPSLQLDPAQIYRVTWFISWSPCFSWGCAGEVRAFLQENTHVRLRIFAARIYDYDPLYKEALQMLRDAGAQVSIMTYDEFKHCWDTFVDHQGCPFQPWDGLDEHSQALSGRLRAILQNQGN
Sequence of 5-hydroxytryptamine receptor 5A (P47898 whole entry): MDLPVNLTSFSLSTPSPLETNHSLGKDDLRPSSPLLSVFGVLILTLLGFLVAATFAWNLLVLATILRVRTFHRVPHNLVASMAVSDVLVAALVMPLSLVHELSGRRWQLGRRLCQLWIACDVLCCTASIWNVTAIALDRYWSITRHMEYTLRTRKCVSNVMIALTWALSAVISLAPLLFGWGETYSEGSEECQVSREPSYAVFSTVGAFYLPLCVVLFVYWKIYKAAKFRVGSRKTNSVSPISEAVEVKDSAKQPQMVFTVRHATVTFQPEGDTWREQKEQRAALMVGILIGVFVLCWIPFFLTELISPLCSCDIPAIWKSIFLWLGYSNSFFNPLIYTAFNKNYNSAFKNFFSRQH
Sequence of Mu-type opioid receptor (P35372 whole entry): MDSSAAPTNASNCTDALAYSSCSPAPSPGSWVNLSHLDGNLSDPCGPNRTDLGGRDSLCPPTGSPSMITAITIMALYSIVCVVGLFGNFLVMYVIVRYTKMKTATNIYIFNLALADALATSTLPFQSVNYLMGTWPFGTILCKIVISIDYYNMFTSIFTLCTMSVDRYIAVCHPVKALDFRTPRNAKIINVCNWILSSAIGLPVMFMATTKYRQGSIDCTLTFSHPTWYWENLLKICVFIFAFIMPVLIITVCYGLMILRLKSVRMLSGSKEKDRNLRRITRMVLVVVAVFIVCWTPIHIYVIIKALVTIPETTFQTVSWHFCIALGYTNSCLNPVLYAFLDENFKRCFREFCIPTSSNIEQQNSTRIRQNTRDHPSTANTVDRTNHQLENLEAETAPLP
Sequence of Cytochrome P450 2D6 (P10635 whole entry): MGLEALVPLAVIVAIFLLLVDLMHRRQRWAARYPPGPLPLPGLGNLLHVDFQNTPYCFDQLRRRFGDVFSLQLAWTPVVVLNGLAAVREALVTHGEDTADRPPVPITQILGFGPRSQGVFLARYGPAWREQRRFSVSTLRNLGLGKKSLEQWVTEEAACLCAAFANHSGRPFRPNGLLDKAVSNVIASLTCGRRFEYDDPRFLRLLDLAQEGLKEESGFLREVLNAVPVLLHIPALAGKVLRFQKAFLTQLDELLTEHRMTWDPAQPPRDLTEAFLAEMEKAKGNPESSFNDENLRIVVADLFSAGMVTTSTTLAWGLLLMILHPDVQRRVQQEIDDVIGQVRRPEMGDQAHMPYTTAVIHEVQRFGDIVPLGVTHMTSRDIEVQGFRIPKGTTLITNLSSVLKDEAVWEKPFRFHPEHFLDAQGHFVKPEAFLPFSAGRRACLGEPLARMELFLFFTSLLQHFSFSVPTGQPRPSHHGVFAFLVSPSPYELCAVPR
Sequence of Cytochrome P450 2C19 (P33261 whole entry): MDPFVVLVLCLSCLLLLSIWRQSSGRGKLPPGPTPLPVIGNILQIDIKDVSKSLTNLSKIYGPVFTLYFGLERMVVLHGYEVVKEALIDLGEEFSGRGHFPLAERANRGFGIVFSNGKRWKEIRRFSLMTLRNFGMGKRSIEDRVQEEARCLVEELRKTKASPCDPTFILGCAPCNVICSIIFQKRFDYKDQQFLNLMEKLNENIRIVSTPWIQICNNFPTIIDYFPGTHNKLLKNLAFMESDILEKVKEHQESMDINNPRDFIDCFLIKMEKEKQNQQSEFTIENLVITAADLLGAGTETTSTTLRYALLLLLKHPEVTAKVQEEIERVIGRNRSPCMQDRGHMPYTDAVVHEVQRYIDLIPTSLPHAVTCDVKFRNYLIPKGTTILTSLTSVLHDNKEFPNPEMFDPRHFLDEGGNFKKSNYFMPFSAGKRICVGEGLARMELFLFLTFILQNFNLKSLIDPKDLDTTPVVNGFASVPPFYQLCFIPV
Sequence of Delta-type opioid receptor (P41143 whole entry): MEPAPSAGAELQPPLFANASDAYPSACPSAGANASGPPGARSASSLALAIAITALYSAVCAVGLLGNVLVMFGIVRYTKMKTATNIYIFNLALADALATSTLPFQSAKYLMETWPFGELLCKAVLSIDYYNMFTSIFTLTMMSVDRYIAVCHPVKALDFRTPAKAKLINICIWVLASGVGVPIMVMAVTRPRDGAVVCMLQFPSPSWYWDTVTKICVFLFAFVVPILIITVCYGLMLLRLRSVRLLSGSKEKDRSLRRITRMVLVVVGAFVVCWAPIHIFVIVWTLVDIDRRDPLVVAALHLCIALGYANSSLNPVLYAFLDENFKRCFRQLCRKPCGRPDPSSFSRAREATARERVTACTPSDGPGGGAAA
Sequence of Cytochrome P450 2C9 (P11712 whole entry): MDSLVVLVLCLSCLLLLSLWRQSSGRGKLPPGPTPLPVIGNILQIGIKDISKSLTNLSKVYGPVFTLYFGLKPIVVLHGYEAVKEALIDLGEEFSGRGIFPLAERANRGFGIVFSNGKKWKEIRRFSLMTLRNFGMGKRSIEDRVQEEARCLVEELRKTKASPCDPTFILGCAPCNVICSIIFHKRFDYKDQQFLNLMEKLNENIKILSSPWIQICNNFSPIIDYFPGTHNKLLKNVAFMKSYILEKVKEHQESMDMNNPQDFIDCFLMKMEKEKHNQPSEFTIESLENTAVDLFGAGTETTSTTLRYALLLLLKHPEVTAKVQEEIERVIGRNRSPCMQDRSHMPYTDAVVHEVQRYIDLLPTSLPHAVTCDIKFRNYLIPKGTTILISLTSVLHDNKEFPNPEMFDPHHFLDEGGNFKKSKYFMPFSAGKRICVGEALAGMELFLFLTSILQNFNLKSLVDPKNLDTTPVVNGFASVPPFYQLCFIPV

For `O=C(NC1CCCC1)c1cc(Cl)ccc1[N+](=O)[O-]`, the AC50 [1] was 0.948 µM (active).

For `O=S(=O)(c1ccccc1)N1CCC2(CC1)CN(C(c1ccccc1)c1ccccc1)C2`, the AC50 (Cytochrome P450 3A4) was “inconclusive”.

In the case of `O=C(Nc1ccccc1)c1cc2ccccc2o1`, the IC50 (cells) is reported as 6.22 µM (active) and the CC50 [2] is reported as > 40 µM (active).

With `N#CC1C(C#N)C2CCC1C1C2N1c1ccccc1` (stereo unspecified) the AC50 [1] was 7.8 µM (active).

With `Cc1ccc2c(c1)C1CN(C)CCC1N2CC(=O)N(C)c1ccccc1` (stereo unspecified) the IC50 [3] was 5.51 µM (active) and the IC50 [4] was 9.94 µM (active).

For `N=C(N)SCCc1ccc(CCSC(=N)N)cc1`, the AC50 (Cytochrome P450 3A4) was “inconclusive” and the AC50 (Cytochrome P450 2D6) was 31.6 µM (inconclusive).

In the case of `CCOC(=O)N1CCN(C(=O)c2oc3ccc(S(=O)(=O)N4CCCCC4)cc3c2C)CC1`, the AC50 (Cytochrome P450 3A4) is reported as “inconclusive”, the AC50 (Cytochrome P450 2C19) is reported as 28.2 µM (inconclusive) and the AC50 (Cytochrome P450 2D6) is reported as 20 µM (inconclusive).

With `CCn1cc(CNCc2cn(-c3ccccc3C)nc2-c2ccc(OC)c(F)c2)cn1` the EC50 (Mu-type opioid receptor) was 18.9 µM (inactive), the EC50 [5] was > 92.5 µM (inactive) and the EC50 [6] was 1.33 µM (active). The EC50 [7] was 34.7 µM (inactive).

In the case of `CCN1CCN(c2ccc(S(=O)(=O)N3CCCCC3)cc2NC(=O)/C=C/c2ccc(OC(F)F)cc2)CC1`, the IC50 [3] is reported as 4.28 µM (active) and the IC50 [4] is reported as 7.32 µM (active).

With `CSC1=NC(=O)/C(=C/c2ccc(SC)cc2)S1` the AC50 [1] was 16.2 µM (active).

With `CN1C2CCC1/C(=C\c1ccccc1)C(=O)/C2=C\c1ccccc1` the AC50 (Cytochrome P450 3A4) was “inconclusive”, the EC50 (H4) was > 120 µM (not active) and the AC50 (Cytochrome P450 2C9) was “inconclusive”. The AC50 [8] was 4.4 µM (active), the EC50 [9] was 6.92 µM (active) and the AC50 (Cytochrome P450 1A2) was 39.8 µM (inconclusive). The EC50 [10] was > 120 µM (not active) and the AC50 (Cytochrome P450 2C19) was 10 µM (inconclusive).

For `COc1ccccc1OCCNC(=O)c1ccc(Br)cc1`, the AC50 [11] was 10.8 µM (active).

With `CCOC(=O)C1(CCCc2ccccc2)CCN(Cc2cnn(C)c2)CC1` the EC50 (Mu-type opioid receptor) was 43 µM (inactive), the EC50 [5] was > 92.5 µM (inactive) and the EC50 [6] was 0.596 µM (active). For the same molecule, the EC50 [7] was > 92.5 µM (inactive).

In the case of `COc1ccccc1N=Nc1[nH]c2ccc(C)cc2c1O`, the IC50 [3] is reported as 6.59 µM (active) and the IC50 [4] is reported as 6.6 µM (active).

In the case of `OCCNC1=NCCN1`, the IC50 [3] is reported as 2.2 µM (active) and the IC50 [4] is reported as 1.95 µM (active).
